Experimental findings from US5246940A, “Substituted N-biphenylyl lactams” (Ortho Pharmaceutical Corporation, priority 1993, dated 1993) are described below.

What all share (type): in vivo, Sprague-Dawley rats
For assay [1], the system named is Angiotensin Receptor. Nature of the assay: Screening Potential Angiotensin Receptor Antagonists in Salt-Depleted Normotensive Rats (blood pressure after oral dosing). Conditions: salt-depleted animals, typical response. The text has this: Test Procedure for Screening Potenital Angiotensin Receptor Antagonists in Salt-Depleted Normotensive Rats
Purpose: This test is designed to detect hypotensive effects of a compound after oral dosing in normotensive animals made renin-dependent by salt depletion. [Wong, P. C., Price, W. A., Chiu, A. T., Duncia, J. V., Carini, D. J., Wexler, R. R., Johnson, A. L., and Timmermans, P. B. M. W. M.: Nonpeptide angiotensin II receptor antagonists. VIII. […] J. Pharmacol. Exp. Ther., 252,726 (1990)]
Solution Preparation: Oral 50 mg/kg furosemide doses are prepared from 10 mg/mL solutions of the intravenous pharmaceutical preparation (Lasix injection, Hoechst-Roussel Pharmaceutical). Test compound is uniformly suspended in 1% methylcellulose.
(§1) Method: Male 350-450 g Sprague-Dawley rats are implanted with teflon microcannulae via the middle caudal artery under 20 mg/kg intravenous brevital anesthesia and permitted a 4-7 day surgical recovery period. Throughout recovery and testing animals are individually housed unrestrained in standard rat metabolism cages and receive continuous 0.5 mL/hour intra-arterial 0.25 N saline infusion through a spring-shielded swivelling tether connected to an infusion/blood pressure recording system to maintain arterial cannula patency. Animals are maintained on Low Sodium (0.03%) Pruina Rat Chow #5881 throughout the study. After the recovery period animals are given oral 50 mg/kg furosemide (Lasix, Hoechst-Roussel Pharmaceutical) doses on two consecutive days to produce marked diuresis and plasma volume depletion that makes maintenance of normal blood pressure highly dependent on function of the renin-angiotensin-aldosteronesystem. Three hours after the second furosemide dose, rats are given test compound uniformly suspended in 1% methylcellulose (n=3/dose level) or 1 mL 1% methylcellulose vehicle (n=3) orally by gavage and blood pressure is continuously recorded for 24 h using a Buxco computerized data recording system. Compound-induced changes in blood pressure are compared to concurrent vehicle control blood pressures in order to detect drug effect.
Interpretation: Prior to salt depletion, normotensive rats typically show a plasma renin activity (PRA), measured by Radioimmuno Assay (RIA) of Angiotensin I (as ng Angiotensin I/mL plasma/hour) and yields a RIA of 0.7. After the salt-depletion protocol PRA values taken 3 hour after the furosemide dose have risen to about 7.4. […] PRA is increased by this DuP-753 treatment to about 41.4.
Compounds that decrease blood pressure 10 or more mmHg (MAP) compared to concurrent control after oral dosing are considered active in this test. Maximum possible response is about-35 mmHg. See results in Table 2.

Assay [2] deals with plasma renin activity (PRA). Nature of the assay: Plasma renin activity by Radioimmuno Assay of Angiotensin I in salt-depleted rats. Conditions: salt-depleted animals; about 7.4 after salt depletion before treatment. As for the experimental part: as §1, with “After the recovery period animals are given oral 50 mg/kg furosemide (Lasix, Hoechst-Roussel Pharmaceutical) doses on two consecutive days to produce marked diuresis and plasma volume depletion that makes maintenance of normal blood pressure highly dependent on function of the renin-angiotensin-aldosteronesystem.” left out, “Compound-induced changes in blood pressure are compared to concurrent vehicle control blood pressures in order to detect drug effect.” left out
Interpretation: Prior to salt depletion, normotensive rats typically show a plasma renin activity (PRA), measured by Radioimmuno Assay (RIA) of Angiotensin I (as ng Angiotensin I/mL plasma/hour) and yields a RIA of 0.7. […]

For assay [3], the system named is Angiotensin Receptor. Nature of the assay: Screening Potential Angiotensin Receptor Antagonists in Salt-Depleted Normotensive Rats (blood pressure after oral dosing).

Consider `CCCCc1nc(Cl)c(CO)n1Cc1ccc(-c2ccccc2-c2nn[nH]n2)cc1` [DuP-753], for which the “blood pressure decrease (mean arterial pressure, MAP)” value with Angiotensin Receptor [1] is listed as “about 35 mmHg”. For the same compound, the “plasma renin activity (PRA) after treatment” value in assay [2] is listed as “about 41.4 ng Angiotensin I/mL plasma/hour”. Besides, the “blood pressure response in normotensive rats that have not been salt-depleted” value in the assay with Angiotensin Receptor [3] was “does not change”.
